# Experimental data from PubChem BioAssay (NCI).
#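 Protocol summary: plate cells (96-well), add compound at 5 concentrations, incubate 48 h, interpolate endpoints linearly. GI50 is the concentration that inhibits growth by half. TGI marks complete inhibition of growth.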
# Columns and labels:
# Assay in all cases: NCI tumour cell line growth inhibition, 48 h
# [1] = system: U251 CNS
# [2] = system: SNB-75 CNS
# [3] = system: TK-10 renal
# [4] = system: SN12C renal
# [5] = system: PC-3 prostate
# [6] = system: MDA-MB-231 breast
# [7] = system: DU-145 prostate
# [8] = system: T-47D breast
# [9] = system: OVCAR-4 ovarian
# [10] = system: HOP-92 NSCLC
# [11] = system: COLO 205 colon
# [12] = system: SNB-19 CNS
# [13] = system: UO-31 renal
# [14] = system: HCT-15 colon
# [15] = system: OVCAR-8 ovarian
# [16] = system: IGROV1 ovarian
# [17] = system: HS 578T breast
# [18] = system: MCF7 breast
# [19] = system: SF-295 CNS
# [20] = system: MDA-MB-435
# [21] = system: OVCAR-5 ovarian
# [22] = system: OVCAR-3 ovarian
# [23] = system: ACHN renal
# [24] = system: SF-539 CNS
# [25] = system: SK-MEL-28 melanoma
# [26] = system: 786-0 renal
# [27] = system: UACC-257 melanoma
# [28] = system: NCI/ADR-RES ovarian
# [29] = system: A498 renal
# [30] = system: CCRF-CEM leukemia
# [31] = system: A549 NSCLC
# [32] = system: HT29 colon
# [33] = system: MALME-3M melanoma
# [34] = system: CAKI-1 renal
# [35] = system: UACC-62 melanoma
# [36] = system: NCI-H23 lung
# [37] = system: SK-MEL-2 melanoma
# [38] = system: NCI-H522 lung
# [39] = system: NCI-H226 lung
# [40] = system: HCT-116 colon
# [41] = system: KM12 colon
# [42] = system: RPMI-8226 leukemia
# [43] = system: K-562 leukemia
# [44] = system: NCI-H460 lung
# [45] = system: SR leukemia
# [46] = system: SF-268 CNS
# [47] = system: MOLT-4 leukemia
# [48] = system: RXF 393 renal
# [49] = system: SK-OV-3 ovarian
# [50] = system: BT-549 breast
# [51] = system: SK-MEL-5 melanoma
# [52] = system: M14 melanoma
# [53] = system: SW-620 colon
# [54] = system: HOP-62 NSCLC
# [55] = system: HL-60(TB) leukemia
# [56] = system: HCC-2998 colon
# [57] = system: LOX IMVI melanoma
smiles,measurement,setting,value
CC(C)Nc1ncc2cc(Oc3ccc(F)cc3F)c(=O)n(C)c2n1,GI50,[1],> 25 µM
same,TGI,[1],> 25 µM
same,GI50,[2],> 25 µM
same,TGI,[2],> 25 µM
same,GI50,[3],15.8 µM
same,TGI,[3],> 25 µM
same,GI50,[4],21.4 µM
same,TGI,[4],> 25 µM
same,GI50,[5],> 25 µM
same,TGI,[5],> 25 µM
same,GI50,[6],21 µM
same,TGI,[6],> 25 µM
same,GI50,[7],> 25 µM
same,TGI,[7],> 25 µM
same,GI50,[8],> 25 µM
same,TGI,[8],> 25 µM
same,GI50,[9],> 25 µM
same,TGI,[9],> 25 µM
same,GI50,[10],2.89 µM
same,TGI,[10],21.6 µM
same,GI50,[11],> 25 µM
same,TGI,[11],> 25 µM
same,GI50,[12],> 25 µM
same,TGI,[12],> 25 µM
same,GI50,[13],5.17 µM
same,TGI,[13],> 13.4 µM
same,GI50,[14],> 25 µM
same,TGI,[14],> 25 µM
same,GI50,[15],> 25 µM
same,TGI,[15],> 25 µM
same,GI50,[16],> 25 µM
same,TGI,[16],> 25 µM
same,GI50,[17],11.6 µM
same,TGI,[17],> 25 µM
same,GI50,[18],> 25 µM
same,TGI,[18],> 25 µM
same,GI50,[19],> 25 µM
same,TGI,[19],> 25 µM
same,GI50,[20],> 25 µM
same,TGI,[20],> 25 µM
same,GI50,[21],> 25 µM
same,TGI,[21],> 25 µM
same,GI50,[22],> 25 µM
same,TGI,[22],> 25 µM
same,GI50,[23],> 25 µM
same,TGI,[23],> 25 µM
same,GI50,[24],> 25 µM
same,TGI,[24],> 25 µM
same,GI50,[25],> 25 µM
same,TGI,[25],> 25 µM
same,GI50,[26],> 25 µM
same,TGI,[26],> 25 µM
same,GI50,[27],> 25 µM
same,TGI,[27],> 25 µM
same,GI50,[28],> 25 µM
same,TGI,[28],> 25 µM
same,GI50,[29],5.39 µM
same,TGI,[29],> 25 µM
same,GI50,[30],> 25 µM
same,TGI,[30],> 25 µM
same,GI50,[31],> 25 µM
same,TGI,[31],> 25 µM
same,GI50,[32],> 25 µM
same,TGI,[32],> 25 µM
same,GI50,[33],> 25 µM
same,TGI,[33],> 25 µM
same,GI50,[34],> 25 µM
same,TGI,[34],> 25 µM
same,GI50,[35],> 25 µM
same,TGI,[35],> 25 µM
same,GI50,[36],> 25 µM
same,TGI,[36],> 25 µM
same,GI50,[37],> 25 µM
same,TGI,[37],> 25 µM
same,GI50,[38],> 25 µM
same,TGI,[38],> 25 µM
same,GI50,[39],> 25 µM
same,TGI,[39],> 25 µM
same,GI50,[40],> 25 µM
same,TGI,[40],> 25 µM
same,GI50,[41],> 25 µM
same,TGI,[41],> 25 µM
same,GI50,[42],> 25 µM
same,TGI,[42],> 25 µM
same,GI50,[43],> 25 µM
same,TGI,[43],> 25 µM
same,GI50,[44],> 25 µM
same,TGI,[44],> 25 µM
same,GI50,[45],> 25 µM
same,TGI,[45],> 25 µM
same,GI50,[46],> 23.7 µM
same,TGI,[46],> 25 µM
same,GI50,[47],> 25 µM
same,TGI,[47],> 25 µM
same,GI50,[48],12.7 µM
same,TGI,[48],> 25 µM
same,GI50,[49],> 25 µM
same,TGI,[49],> 25 µM
same,GI50,[50],> 25 µM
same,TGI,[50],> 25 µM
same,GI50,[51],> 25 µM
same,TGI,[51],> 25 µM
same,GI50,[52],> 25 µM
same,TGI,[52],> 25 µM
same,GI50,[53],> 25 µM
same,TGI,[53],> 25 µM
same,GI50,[54],> 25 µM
same,TGI,[54],> 25 µM
same,GI50,[55],> 25 µM
same,TGI,[55],> 25 µM
same,GI50,[56],> 25 µM
same,TGI,[56],> 25 µM
same,GI50,[57],> 25 µM
same,TGI,[57],> 25 µM
